# Laboratory results as given in PMC10218704, “A Novel Blood–Brain Barrier-Penetrating and Vascular-Targeting Chimeric Peptide Inhibits Glioma Angiogenesis” (International Journal of Molecular Sciences, 2023).
# What was measured:
# HUVECs = assay: Annexin V-FITC/PI staining, flow cytometry (apoptosis); format: cell-based, human; conditions: 320 μmol/L, 24 h
# Method: HUVECs were seeded into 6-well culture plates (3 × 10^5 cells/well). […] After discarding the supernatant and washing with cold PBS, the cells were fixed in 4% paraformaldehyde and stained with Hoechst 33,258 for 10 min. Then, the cells were washed with cold PBS and observed using an inverted fluorescence microscope. HUVECs were treated with different peptides (the methods were the same as the Hoechst staining). After 24 h, cells were collected by trypsin digestion and washed with PBS. Annexin V-FITC/PI staining was conducted according to the manufacturer’s instructions for the Apoptosis Detection Kit. Briefly, 195 μL of Annexin V-FITC/PI dilution buffer was added to resuspend the cells. Then, 5 μL of Annexin V-FITC and 10 μL of PI staining solutions were added and gently mixed with the cells. After incubation at room temperature in the dark for 10 min, the apoptotic cells were detected by flow cytometry.
# [1] = tested on: zebrafish embryo intersegmental vessel; assay: Zebrafish embryo intersegmental vessel angiogenesis; format: in vivo; conditions: 25 µmol/L; 24 h; 28 °C; fluorescence microscope; vs control; n = 3
# Method: After a certain period, healthy, sexually mature female and male zebrafish were mated in a 1:1 ratio. After 24 h, the fertilized eggs were removed, disinfected, and washed, and then placed in embryo culture water and cultured in an incubator at 28 °C for 24 h. The fertilized eggs were washed with chain enzyme protease E solution (1 mg/mL) to remove the egg membrane on the surface and placed under a microscope to observe and select the normally developing zebrafish embryos, and then placed into a 24-well plate. […] The control group was added with the same volume of embryo culture water, and then placed in an incubator at 28 °C for 24 h. Zebrafish embryos were randomly removed from each group and observed under a fluorescence microscope. The total length of zebrafish internode vessels was calculated and counted.
# NRP-1 [2] = conditions: peptide 1000 nmol/L; VEGF-A165 0.5-8 nmol/L; CM5 chip; HBS-EP
# VEGFR-2 = format: binding, human; conditions: peptide 256 and 1000 nmol/L; VEGF-A165 0.5-8 nmol/L; CM5 chip; HBS-EP
# Method: To determine the effect of TAT-AT7 in competition with VEGF-A165 binding to VEGFR-2 or NRP-1, the SPR assay was conducted. The whole operation was conducted on a Biacore S200 instrument. The recombinant VEGFR-2 or NRP-1 proteins were firstly immobilized on a CM5 chip by an amine-coupling reaction. VEGF-A165 ligands with gradient concentrations in the absence or presence of different peptides were then flowed over the CM5 chip. The binding of VEGF-A165 ligands to the immobilized recombinant VEGFR-2 or NRP-1 proteins led to an increase of the refractive index on the surface of the chip, which could be converted into the fluctuation of electrical signals in the response (RU). As the concentration of VEGF-A165 was higher, the response value was also higher. However, with the addition of different peptides, the response value decreased to different degrees (Figure 3A and Figure 4A).
# (TAT), ATWLPPR (AT7), and […] (TAT-AT7) were synthesized from China Peptides Co., Ltd. (Shanghai, China). The Hoechst 33,258 staining kit, Annexin V-FITC/PI apoptosis detection kit, and BCA protein assay kit were obtained from Beyotime Biotechnology (Nantong, China). The total protein extraction kit was from BestBio (Shanghai, China). The CM5 sensor chip was obtained from GE Healthcare Life Sciences (Uppsala, Sweden). Purified recombinant human VEGFR-2 and NRP-1 receptor proteins were purchased from R&D Systems (Minneapolis, MN, USA). Recombinant human endothelial growth factor-A165 (VEGF-A165) was obtained from PeproTech (Rocky Hill, NJ, USA). Anti-ERK1/2, anti-p-ERK1/2, anti-p-VEGFR-2, anti-AKT, anti-p-AKT, anti-p-SRC, anti-p-FAK, anti-p38 MAPK, anti-p-p38 MAPK, anti-p-PLC-γ, and anti-GAPDH antibodies were purchased from Cell Signaling Technology (Danvers, MA, USA). Anti-VEGFR-2, anti-FAK, and anti-SRC were purchased from Proteintech Group, Inc (Wuhan, China). F-12K medium, heparin, and endothelial cell growth supplement (ECGS) were from Macgene (Beijing, China). DMEM medium and fetal bovine serum (FBS) were obtained from Gibco®, Life Technologies (Carlsbad, CA, USA). […]
# red blood cells = assay: Hemolysis assay; conditions: 2.5–640 μmol/L; 37 °C, 1 h; 540 nm; mouse red blood cells; n = 3
# Method: The fresh blood of mice was centrifuged at 2000 r/min for 10 min, and the upper layer of serum was discarded, then mixed with normal saline and centrifuged at 2000 r/min for 10 min, repeated three times, and the supernatant was removed to obtain the lower layer of red blood cells. Then, 1 mL of red blood cells was diluted to 50 mL with normal saline. […] The samples were incubated at 37 °C for 1 h, centrifuged at 2000 r/min for 10 min, and photographed. Light absorption of samples was measured at 540 nm on a microplate reader.
# Cell hemolysis rate (%) = (OD experimental group − negative control group)/(OD positive control group − negative control group) × 100%.
# [3] = tested on: intracranial U87-mCherry-luc glioma; assay: In vivo anti-glioma study (bioluminescence); parameters: species or system nude mice; conditions: 20 mg/kg/day i.v. (tail vein), 11 days; days 4, 7, 11, 14; n = 5
# Method: The orthotopic U87-mCherry-luc glioma-bearing nude mice were randomly assigned to 6 groups (n = 5) according to the bioluminescence intensity of glioma measured on day 4. […] The bioluminescence intensity was measured on days 4, 7, 11, and 14, respectively. Nude mice were weighed daily. On day 15, the mice were sacrificed, and the glioma-bearing brains were harvested. The brain tissues were fixed with 4.0% paraformaldehyde, embedded in paraffin, and cut into slices. The TUNEL staining and CD31 immunohistochemical staining were conducted according to standard histological procedures.
# NRP-1 [4] = tested on: NRP-1; parameters: method as in 2 sources, ref 21 = [21]; PMID 17983687; doi:10.1016/j.peptides.2007.09.013; 21. Starzec A. Ladam P. Vassy R. Badache S. Bouchemal N. Navaza A. du Penhoat C.H. Perret G.Y. Structure-function analysis of the antiangiogenic ATWLPPR peptide inhibiting VEGF (165) binding to neurop ||| ref 36 = [36]; PMID 11327725; doi:10.1006/bbrc.2001.4790; 36. Jia H. Lohr M. Jezequel S. Davis D. Shaikh S. Selwood D. Zachary I. Cysteine-rich and basic domain HIV-1 Tat peptides inhibit angiogenesis and induce endothelial cell apoptosis Biochem. Biophys. R; conditions: cited from earlier work
compound,measurement,setting,value
"N=C(N)NCCC[C@H](NC(=O)[C@H](CCCNC(=N)N)NC(=O)[C@H](CCCNC(=N)N)NC(=O)[C@H](CCC(N)=O)NC(=O)[C@H](CCCNC(=N)N)NC(=O)[C@H](CCCNC(=N)N)NC(=O)[C@H](CCCCN)NC(=O)[C@H](CCCCN)NC(=O)[C@@H](N)CCCNC(=N)N)C(=O)O [TAT, reference compound]",induction of apoptosis,HUVECs; Hoechst and Annexin V-FITC/PI staining,no obvious effect of promoting apoptosis
same,total apoptotic rate (Q1-UR and Q1-LR),"HUVECs; mean ± SD, n = 3, control (7.17 ± 1.42)%",8.94 ± 3.52%
same,intersegmental vascular growth,[1],no obvious effect on intersegmental vascular growth
same,inhibition of binding of VEGF-A165 and NRP-1,NRP-1 [2],"displayed inhibitory effects on the binding of VEGF-A165 and NRP-1, but it did not completely inhibit the binding"
same,effect on VEGF-A165 and VEGFR-2 binding (RU),VEGFR-2,less inhibitory effects on VEGF-A165 and VEGFR-2 binding than TAT-AT7
same,hemolysis,red blood cells,did not cause obvious hemolysis
same,hemolysis rate,red blood cells,lower than 5%
same,glioma growth (bioluminescence),[3],no significant difference compared to the control group
KKRRQRRRPPQG [HIV-1 Tat-derived peptide],disturbing the cross-linking of VEGF to NRP-1,NRP-1 [4],displayed potency in disturbing the cross-linking of VEGF to NRP-1
KRRQRRRPPQGNQAHQDPLP [HIV-1 Tat-derived peptide],disturbing the cross-linking of VEGF to NRP-1,NRP-1 [4],displayed potency in disturbing the cross-linking of VEGF to NRP-1
SYGRKKRRQRRR [HIV-1 Tat-derived peptide],disturbing the cross-linking of VEGF to NRP-1,NRP-1 [4],displayed potency in disturbing the cross-linking of VEGF to NRP-1
